Source: patent US20240041042A1, “1-(PYRIDYL)-5-AZINYLPYRAZOLE DERIVATIVES, AND THEIR USE FOR CONTROL OF UNDESIRED PLANT GROWTH” (Bayer Aktiengesellschaft, priority 2020, published 2024)
Like-named read-outs stand apart in the source and are kept apart here.

How the values were obtained:
Format in all cases: in vivo
Setaria viridis (SETVI) [1] = assay: Pre-emergence herbicidal action against SETVI; settings: dosage 320 g/ha
Procedure, shortened: (§1)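 Pre-emergence soil-surface spray of compound, formulated as wettable powder or emulsion concentrate, in aqueous suspension or emulsion with 0.5% additive (600 l/ha; rate 320 g/ha or less). Activity rated visually after roughly 3 weeks in the greenhouse as a percentage of untreated controls, 0% meaning no difference.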

Zea mays (ZEAMX) [2] = settings: for Post-emergence action against ZEAMX in % (crop plant compatibility): 20 g/ha, effect in comparison to untreated controls; for Post-emergence action against ZEAMX in %: crop plant compatibility, 80 g/ha, effect vs untreated controls
Procedure, shortened: (§2)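 Visual rating (% effect vs. untreated plants; 100% = plant death) made about 3 weeks after treatment. Plants had been sprayed at one-leaf stage, 2–3 weeks post-sowing, with aqueous WP/EC preparations containing 0.5% additive, 600 l/ha water volume; a, b, c mark dose levels.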

[3] = test system: Triticum aestivum (TRZAS); settings: crop plant compatibility, effect vs untreated controls
Procedure, shortened: as §2

Oryza sativa (ORYSA) [4] = settings: crop plant compatibility
Procedure, shortened: as §2

Zea mays (ZEAMX) [5] = settings: pre-emergence, crop plant compatibility, in comparison to untreated controls
Procedure, shortened: (§3)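 Scoring: visual, % of untreated control, about 3 weeks after a pre-emergence application to the soil surface. Application used WP or EC formulations diluted in water with 0.5% additive at 600 l/ha; dosage levels are marked by suffixes a, b and c.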

[6] = test system: Alopecurus myosuroides (ALOMY); assay: Pre-emergence herbicidal action against ALOMY; settings: scored visually after about 3 weeks, 100% = plants have died
Procedure, shortened: as §1

[7] = test system: Amaranthus retroflexus (AMARE); assay: Pre-emergence herbicidal action against AMARE; settings: visual scoring after about 3 weeks vs untreated controls
Procedure, shortened: as §1

[8] = test system: Verconica persica (VERPE); assay: Pre-emergence herbicidal action against VERPE; settings: dosage 320 g/ha
Procedure, shortened: as §1

[9] = test system: Echinochloa crus-galli (ECHCG); assay: Post-emergence herbicidal action against ECHCG; settings: dosage 80 g/ha
Procedure, shortened: (§4)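 Values are percent visual activity (0% like control, 100% plants dead) after about 3 weeks in the greenhouse. Treatment: post-emergence spray at one-leaf stage, 600 l/ha spray volume, 0.5% additive, doses 320 g/ha or lower.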

Brassica napus (BRSNW) [10] = assay: Post-emergence crop plant compatibility, BRSNW; settings: effect in comparison to untreated controls
Description: Seeds of monocotyledonous and dicotyledonous weeds and crop plants are placed in sandy loam in plastic or organic planting pots, covered with soil and cultivated in a greenhouse under controlled growth conditions. 2 to 3 weeks after sowing, the test plants are treated at the one-leaf stage. The compounds of the invention, formulated in the form of wettable powders (WP) or as emulsion concentrates (EC), are then sprayed onto the green parts of the plants as aqueous suspension or emulsion with addition of 0.5% additive at a water application rate of 600 l/ha (converted). After the test plants have been kept in the greenhouse under optimum growth conditions for about 3 weeks, the activity of the preparations is rated visually in comparison to untreated controls. For example, 100% activity=the plants have died, 0% activity=like control plants.
The observed effects on selected crop plants are reported here in comparison to the untreated controls (values in %). The appendices “a”, “b” and “c” give differentiation by dosage used with otherwise the same crop plants tested.

Setaria viridis (SETVI) [11] = assay: Post-emergence herbicidal action against SETVI; settings: dosage 80 g/ha
Procedure, shortened: as §4

[12] = test system: Polygonum convolvulus (POLCO); assay: Pre-emergence herbicidal action against POLCO
Procedure, shortened: as §1

[13] = test system: Echinochloa crus-galli (ECHCG); assay: Pre-emergence herbicidal action against ECHCG; settings: dosage 320 g/ha
Procedure, shortened: as §1

Viola tricolor (VIOTR) = assay: Pre-emergence herbicidal action against VIOTR
Procedure, shortened: as §1

Lolium rigidum (LOLRI) = assay: Pre-emergence herbicidal action against LOLRI; settings: dosage 320 g/ha
Procedure, shortened: as §1

Avena fatua (AVEFA) = assay: Pre-emergence herbicidal action against AVEFA; settings: 320 g/ha, visual scoring after about 3 weeks vs untreated controls
Procedure, shortened: as §1

Glycine max (GLXMA) = settings: pre-emergence, crop plant compatibility, in comparison to untreated controls
Procedure, shortened: as §3

Brassica napus (BRSNW) [14] = settings: crop plant compatibility, in comparison to untreated controls
Procedure, shortened: as §3

[15] = test system: Triticum aestivum (TRZAS); settings: pre-emergence, crop plant compatibility, in comparison to untreated controls
Procedure, shortened: as §3

Oryza sativa (ORYSA) [16] = settings: pre-emergence, crop plant compatibility, in comparison to untreated controls
Procedure, shortened: as §3

[17] = 20 g/ha, effect vs untreated controls
[18] = 80 g/ha, effect in comparison to untreated controls

CCOC(=O)CCNC(=O)COc1nn(-c2ncccc2F)c(-c2ccc(OC)nc2)c1Br [Example I-47]
10%: Post-emergence action against ZEAMX in % (crop plant compatibility) (Zea mays (ZEAMX) [2]) | Post-emergence action against ZEAMX in % (Zea mays (ZEAMX) [2]) | Post-emergence action against TRZAS in % ([3]; 20 g/ha) | Post-emergence action against BRSNW in % (Brassica napus (BRSNW) [10]; 20 g/ha)
80%: Post-emergence action against ECHCG in % [9] | Pre-emergence action against POLCO in % ([12]; dosage 80 g/ha)
20%: Post-emergence action against ORYSA in % (Oryza sativa (ORYSA) [4]; [17]) | Post-emergence action against ORYSA in % (Oryza sativa (ORYSA) [4]; [18]) | Pre-emergence action against ZEAMX in % (Zea mays (ZEAMX) [5]; 80 g/ha)
90%: Pre-emergence action against ALOMY ([6]; 80 g/ha) | Pre-emergence action against ALOMY ([6]; 320 g/ha) | Pre-emergence action against VERPE in % [8] | Post-emergence action against SETVI in % (Setaria viridis (SETVI) [11]) | Pre-emergence action against POLCO in % ([12]; dosage 320 g/ha) | Pre-emergence action against ECHCG in % [13] | Pre-emergence action against AVEFA in % (Avena fatua (AVEFA))
100%: Pre-emergence action against SETVI in % (Setaria viridis (SETVI) [1]) | Pre-emergence action against AMARE in % ([7]; 80 g/ha) | Pre-emergence action against AMARE in % ([7]; 320 g/ha) | Pre-emergence action against VIOTR in % (Viola tricolor (VIOTR); 320 g/ha, Viola tricolor) | Pre-emergence action against VIOTR in % (Viola tricolor (VIOTR); dosage 80 g/ha) | Pre-emergence action against LOLRI in % (Lolium rigidum (LOLRI))

COC(=O)C1CCN(C(=O)COc2nn(-c3ccccn3)c(-c3ccc(F)nc3)c2Br)C1 (stereo not shown) [Example I-109]
0%: Post-emergence action against TRZAS in % ([3]; 20 g/ha) | Post-emergence action against ORYSA in % (Oryza sativa (ORYSA) [4]; [17]) | Post-emergence action against ORYSA in % (Oryza sativa (ORYSA) [4]; [18]) | Pre-emergence action against TRZAS in % ([15]; 80 g/ha) | Post-emergence action against BRSNW in % (Brassica napus (BRSNW) [10]; 20 g/ha)
20%: Pre-emergence action against GLXMA in % (Glycine max (GLXMA); 80 g/ha) | Pre-emergence action against GLXMA in % (Glycine max (GLXMA); 320 g/ha)
10%: Post-emergence action against ZEAMX in % (crop plant compatibility) (Zea mays (ZEAMX) [2]) | Post-emergence action against ZEAMX in % (Zea mays (ZEAMX) [2]) | Post-emergence action against TRZAS in % ([3]; 80 g/ha) | Pre-emergence action against ZEAMX in % (Zea mays (ZEAMX) [5]; 80 g/ha) | Pre-emergence action against ZEAMX in % (Zea mays (ZEAMX) [5]; 320 g/ha) | Pre-emergence action against BRSNW in % (Brassica napus (BRSNW) [14]; 80 g/ha) | Pre-emergence action against BRSNW in % (Brassica napus (BRSNW) [14]; 320 g/ha) | Pre-emergence action against TRZAS in % ([15]; 320 g/ha) | Pre-emergence action against ORYSA in % (Oryza sativa (ORYSA) [16]; 80 g/ha) | Pre-emergence action against ORYSA in % (Oryza sativa (ORYSA) [16]; 320 g/ha) | Post-emergence action against BRSNW in % (Brassica napus (BRSNW) [10]; 80 g/ha)
